Our source for the IC50 values is US20180179198A1, “TRICYCLIC MODULATORS OF TNF SIGNALING” (AbbVie Inc., priority 2015, published 2018).

Where two headings read alike, the source gives them in different places.

This experiment has as its target TNFα trimer (Homo sapiens, UniProt P01375). As to the kind of experiment: TNFα FP Competitive Binding Assay. The procedure:
TNFα FP Competitive Binding Assay
• 1. Assay Buffer: Prepare 1× Assay Buffer (Water with 47 mM HEPES, 47 mM NaCl, 0.9 mM EDTA, 0.0071% Triton X-100) by adding 25 mL of 1 M HEPES, 5 mL of 5 M NaCl, 1 mL of 0.5 M EDTA, and 375 μL of a 10% Triton X-100 stock to a fresh 500 mL bottle of water. • 2. Assay Mixture: Prepare fresh Assay Mixture containing 20 nM TNFα trimer (60 nM protein) and 1 nM 2′,7′-difluoro-3′,6′-dihydroxy-N-(2-(2-(2-((4-(isoquinolin-8-yl)-3-(4-(isoquinolin-8-yl)phenethoxy)benzyl)oxy)ethoxy)ethoxy)ethyl)-3-oxo-3H-spiro[isobenzofuran-1,9′-xanthene]-5-carboxamide probe in 1× Assay Buffer.
Compound Plate Preparation
Manual 12-point 1:3 Dilution Plates: (384 well polypropylene plates)
Top concentration of compounds, 10 mM in DMSO, dispensed in rows A-O in columns 1 and 13. Compounds are serially diluted 1:3 with DMSO in columns 2-12 or 14-24 using a 16-channel Matrix pipettor. Plates stored at −20° C.
Discovery Preps 12-point 1:3 Dilution Plates: (384 well assay plates)
Top concentration, 5 mM in DMSO, of compounds placed in rows A-O in columns 1 and 13. Compounds are serially diluted 1:3 with DMSO in columns 2-12 or 14-24. Compound solutions are dispensed into replicate assay plates at 410 nL per well. Plates stored at 4° C.
TNFα FP Competitive Binding Assay Protocol
• 1. Compound plates are warmed to rt. • 2. Fresh Assay Mixture is prepared. • 3. Assay Mixture (20 μL) is dispensed each well of 384 assay plates using a Thermo Multidrop Combi or 16-channel Matrix pipettor. If Manual 12-point 1:3 Dilution Plates are to be tested, Assay Mix is dispensed into empty plates. Discovery Preps 12-point 1:3 Dilution Plates already contain 410 nL compound solution in DMSO. • 4. For Manual 12-point 1:3 Dilution Plates, 0.7 μL is manually transferred using a 16-channel Matrix pipettor to replicate assay plates containing 20 μL Assay Mixture for a final top compound concentration of 338 μM (3.4% DMSO). • 5. For Discovery Preps 12-point 1:3 Dilution Plates, 20 μL Assay Mixture added the 410 nL compound solution already in the plates yields a final top compound concentration of 100 μM (2.0% DMSO). • 6. Background subtraction controls are wells P1-P8 containing only Assay Buffer. The low % inhibition controls are wells P9-P16 containing only Assay Mix. The high % inhibition are wells P17-P24 containing only 1 nM 2′,7′-difluoro-3′,6′-dihydroxy-N-(2-(2-(2-((4-(isoquinolin-8-yl)-3-(4-(isoquinolin-8-yl)phenethoxy)benzyl)oxy)ethoxy)ethoxy)ethyl)-3-oxo-3H-spiro[isobenzofuran-1,9′-xanthene]-5-carboxamide probe in 1× Assay Buffer. • 7. Plates are incubated at […] for 18-24 h in 37° C. incubator (CO2 is off). • 8. Prior to reading the assay, the plates are placed in a dark cabinet to equilibrate at rt for one hour. • 9. Background-subtracted fluorescence polarization (mP) is measured using a PerkinElmer Envision plate reader. • 10. Raw data is entered into Assay Explorer and dose-response curves are generated using a variable slope curve.

[1] abbreviates: TNFα FP competitive binding assay, class symbols A/B/C, read-out: TNF IC50.
Setting [2] is: fluorescence polarization competition, 20 nM TNFα trimer, 1 nM OregonGreen488 probe, read-out: TNF IC50 (TNFα FP binding assay IC50).

Sequence of TNFα trimer (P01375 77-233 limits assumed): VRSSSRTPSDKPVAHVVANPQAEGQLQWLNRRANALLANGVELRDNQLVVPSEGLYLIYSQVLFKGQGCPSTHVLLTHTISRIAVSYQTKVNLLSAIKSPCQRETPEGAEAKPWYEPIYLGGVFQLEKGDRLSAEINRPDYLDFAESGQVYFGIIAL

As for `OC1CCN(c2ncc(-c3ccc4nc5n(c4n3)[C@@H](c3ccccc3)CC5)cn2)CC1` [Y.11], the IC50 – broadly, the midpoint of a concentration-inhibition curve – under setting [1] was less than 1000 nM.

With `CS(=O)(=O)c1ncc(-c2ccc3nc4n(c3n2)C2(CCOc3ccccc32)COC4)cn1` (stereo not shown) [BA.3], the IC50 under setting [1] was 1000 to 10000 nM.

As for `CC(C)(N)c1ncc(-c2ccc3nc4n(c3n2)C2(CCc3ccccc32)COC4)cn1` (stereo not shown) [Example 80, 2-(5-(2,3-Dihydro-6′H,8′H-spiro[indene-1,9′-pyrido[3′,2′:4,5]imidazo[2,1-c][1,4]oxazin]-2′-yl)pyrimidin-2-yl)propan-2-amine], the IC50 under setting [2] is less than 1000 nM.

As for `OC1CCN(c2ncc(-c3ccc4nc5c(n4n3)C(c3ccccc3)CC5)cn2)CC1` (stereo not shown) [Example 33, 1-(5-(8-Phenyl-7,8-dihydro-6H-cyclopenta[4,5]imidazo[1,2-b]pyridazin-2-yl)pyrimidin-2-yl)piperidin-4-ol], the IC50 under setting [2] is less than 1000 nM.

With `c1ccc([C@H]2CCc3nc4ccc(-c5ccnc(OC6CCCNC6)c5)nc4n32)cc1` (stereo partly shown) [AT.1], under setting [1], the IC50 fell in the range of 1000 to 10000 nM.

`c1ccc([C@H]2CCc3nc4ccc(-c5ccnc(OC6COC6)c5)nc4n32)cc1` [AQ.3]: the IC50 under setting [1] lay within 1000 to 10000 nM.

Take `COc1ccccc1[C@H]1CCc2nc3ccc(-c4cnc(N5CCN6C(=O)NC[C@@H]6C5)nc4)nc3n21` [AO.1]: the IC50 under setting [1] is less than 1000 nM.

Turning to `OC1CCN(c2ncc(-c3ccc4nc5n(c4c3)[C@@H](c3ccccc3)CC5)cn2)CC1(F)F` (stereo partly shown) [F.2], under setting [2], the IC50 was less than 1000 nM.

Regarding `N#Cc1ccc(-c2ccc3nc4n(c3c2)C(c2ccccc2)COC4)cn1` (stereo not shown) [T.16], under setting [1], the IC50 was in the range of 1000 to 10000 nM.

For `C[C@H]1CN(c2ncc(-c3ccc4nc5n(c4n3)[C@@]3(COC5)COc4ccccc43)cn2)CCN1C(=O)CO` [Example 75, 1-((S)-4-(5-((S)-6′,8′-Dihydro-2H-spiro[benzofuran-3,9′-pyrido[3′,2′:4,5]imidazo[2,1-c][1,4]oxazin]-2′-yl)pyrimidin-2-yl)-2-methylpiperazin-1-yl)-2-hydroxyethanone], under setting [2], the IC50 is less than 1000 nM.

As to `C[C@@H]1CN(c2ncc(-c3ccc4nc5n(c4n3)[C@@]3(COC5)COc4ccccc43)cn2)CCN1C(=O)CO` [BL.1], the IC50 (Table BL, read-out: TNF IC50) is less than 1000 nM.

Turning to `O=C(O)CC1CCCN(c2ncc(-c3ccc4nc5n(c4c3)[C@@H](c3ccccc3)COC5)cn2)C1` (stereo partly shown) [G.3], the 50% inhibitory concentration (IC50) under setting [2] was in the range of 1000 to 10000 nM.

Consider `O=C1CN(c2ncc(-c3ccc4nc5n(c4c3)[C@@H](c3ccccc3)COC5)cn2)CCN1` [G.30], for which the IC50 under setting [2] was less than 1000 nM.

Consider `c1ccc(C2COCc3nc4ccc(-c5cncnc5)cc4n32)cc1` (stereo not shown) [T.26], for which the IC50 under setting [1] fell in the range of 10000 to 100000 nM.

On to `OC1(c2cccc(F)c2)CCCCc2nc3ccc(-c4cnc(N5CCOCC5)nc4)cn3c21` (stereo not shown) [J.1], for which, under setting [2], the IC50 was less than 1000 nM.

With `OC1CCN(c2ncc(-c3ccc4nc5n(c4c3)[C@@H](c3ccccc3)CC5)cn2)CC1` [F.3], the IC50 under setting [2] is less than 1000 nM.

As for `N#CCOc1cccc(-c2ccc3nc4n(c3c2)C(c2ccccc2)CC4)c1` (stereo not shown) [A.18], under setting [2], the IC50 lay in the range of 1000 to 10000 nM.

As to `O=C(O)C1CCN(c2ncc(-c3ccc4nc5n(c4c3)C(c3ccccc3)CCC5)cn2)CC1` (stereo not shown) [H.2], the IC50 under setting [2] lay within 1000 to 10000 nM.

As for `OC1CCN(c2ncc(-c3ccc4nc5n(c4n3)[C@@H](c3ccccc3)[C@@H]3C[C@H]5O3)cn2)CC1` [Example 71, 1-(5-((6R,8S,9S)-9-Phenyl-6,7,8,9-tetrahydro-6,8-epoxyimidazo[1,2-a:5,4-b′]dipyridin-2-yl)pyrimidin-2-yl)piperidin-4-ol], the IC50 under setting [2] was 10000 to 100000 nM.

On to `C1=C(c2ccc3nc4n(c3n2)C2(COC4)COc3ccccc32)CCN(c2ccncn2)C1` (stereo not shown) [Example 73, 2′-(1-(Pyrimidin-4-yl)-1,2,3,6-tetrahydropyridin-4-yl)-2H,6′H,8′H-spiro[benzofuran-3,9′-pyrido[3′,2′:4,5]imidazo[2,1-c][1,4]oxazine]], for which, under setting [2], the IC50 fell in the range of 1000 to 10000 nM.

As to `c1ccc(C2COCc3nc4ccc(-c5cnc6ccoc6c5)cc4n32)cc1` (stereo not shown) [T.29], the 50% inhibitory concentration (IC50) under setting [1] lay in the range of 1000 to 10000 nM.

`OCCC1(O)CCN(c2ncc(-c3ccc4nc5n(c4c3)[C@@H](c3ccccc3)COC5)cn2)C1` (stereo partly shown) [G.31]: under setting [2], the IC50 was in the range of 1000 to 10000 nM.

Turning to `COc1ccccc1C1CCc2nc3ccc(-c4cnc(C(C)(C)O)nc4)cn3c21` (stereo not shown) [Example 10, 2-(5-(1-(2-Methoxyphenyl)-2,3-dihydro-1H-cyclopenenta[4,5]imidazo[1,2-a]pyridin-7-yl)pyrimidin-2-yl)propan-2-ol], the IC50 under setting [2] was less than 1000 nM.

As for `CCN(C)C(=O)c1ccc(-c2ccc3nc4n(c3c2)C(c2ccccc2)CC4)cc1` (stereo not shown) [A.11], under setting [2], the IC50 is less than 1000 nM.

In the case of `C1=C(c2ccc3nc4n(c3n2)C2(COC4)COc3ccccc32)CNC1` (stereo not shown) [BF.1], the IC50 under setting [1] was in the range of 1000 to 10000 nM.

In the case of `O[C@H]1CC[C@@H](COc2cc(-c3ccc4nc5n(c4n3)[C@@H](c3ccccc3)CC5)ccn2)CC1` [BK.1], the IC50 (Table BK, read-out: TNF IC50) is less than 1000 nM.

`Fc1ccc(F)c(C2COCc3nc4ccc(-c5cnc(N6CCOCC6)nc5)cc4n32)c1` (stereo not shown) [U.1]: the IC50 under setting [1] was less than 1000 nM.

Take `COc1ccccc1C1CCc2nc3ccc(-c4cnc(C(C)(C)O)nc4)cc3n21` (stereo not shown) [E.3]: the IC50 under setting [2] is less than 1000 nM.

Take `O=C1NCC2CN(c3ncc(-c4ccc5nc6n(c5c4)C4(CCc5ccccc54)COC6)cn3)CCN12` (stereo not shown) [V.3]: under setting [1], the IC50 is less than 1000 nM.

For `c1ccc(C2CCc3nc4ccc(-c5ccc6c(c5)OCO6)cc4n32)cc1` (stereo not shown) [A.37], the IC50 under setting [2] fell in the range of 1000 to 10000 nM.

For `O=c1cc(-c2ccc3nc4n(c3n2)[C@@H](c2ccccc2)CC4)ccn1CC1CCC(F)(F)CC1` [Example 53, (R)-1-((4,4-Difluorocyclohexyl)methyl)-4-(8-phenyl-7,8-dihydro-6H-pyrrolo[2′,1′:2,3]imidazo[4,5-b]pyridin-2-yl)pyridin-2(1H)-one], under setting [2], the IC50 lay within 1000 to 10000 nM.

In the case of `OC(c1ncc(-c2ccc3nc4n(c3n2)[C@@H](c2ccccc2)CC4)cn1)C1CCOCC1` (stereo partly shown) [AL.3], the IC50 under setting [1] fell in the range of 1000 to 10000 nM.

Regarding `Cc1ccc(C)c([C@@H]2CCc3nc4ccc(-c5cnc(C(C)(C)O)nc5)cc4n32)c1` [Y.9], under setting [1], the IC50 fell in the range of 1000 to 10000 nM.

As for `O=C1CN(c2ncc(-c3ccc4nc5n(c4n3)C(c3cccc(F)c3)CC5)cn2)CCN1` (stereo not shown) [M.3], the IC50 under setting [2] is less than 1000 nM.

In the case of `OC1CCN(c2ncc(-c3ccc4nc5n(c4c3)[C@@H](c3ccccc3)COC5)cn2)CC1(F)F` (stereo partly shown) [W.1], the IC50 under setting [1] was less than 1000 nM.

Consider `CC(C)Nc1ncc(-c2ccc3nc4n(c3n2)C2(CCOc3ccccc32)COC4)cn1` (stereo not shown) [BA.5], for which the IC50 under setting [1] lay in the range of 1000 to 10000 nM.

As for `c1nc(N2CCOCC2)ncc1-c1ccc2nc3c(n2n1)C1(CCCCC1)OCC3` [AY.1], the IC50 under setting [1] was in the range of 1000 to 10000 nM.

Turning to `CC(C)(O)c1ncc(-c2ccc3nc4n(c3n2)C(c2cccc(F)c2)CC4)cn1` (stereo not shown) [M.2], under setting [2], the IC50 is less than 1000 nM.

`CC(C)(O)c1ncc(-c2ccc3nc4n(c3n2)[C@@H](c2ccccc2)COC4)cn1` [AB.2]: under setting [1], the IC50 was less than 1000 nM.

As to “1-((R)-4-(5-((R)-8-(3-(Hydroxymethyl)phenyl)-7,8-dihydro-6H-pyrrolo[2′,1′:2,3]imidazo[4,5-b]pyridin-2-yl)pyrimidin-2-yl)-2-methylpiperazin-1-yl)ethanone [Example 45]”, under setting [2], the IC50 was 1000 to 10000 nM.

Consider `CC(C)(O)c1ncc(-c2ccc3nc4n(c3c2)C(c2ccccc2)CCC4)cn1` (stereo not shown) [E.1, 2-(5-(1-Phenyl-1,2,3,4-tetrahydrobenzo[4,5]imidazo[1,2-a]pyridin-8-yl)pyrimidin-2-yl)propan-2-ol], for which the IC50 under setting [2] was less than 1000 nM.

`CC(C)(O)c1ncc(-c2ccc3nc4n(c3c2)[C@@H](c2ccccc2)CC4)cn1` [Example 2, (R)-2-(5-(1-Phenyl-2,3-dihydro-1H-benzo[d]pyrrolo[1,2-a]imidazol-7-yl)pyrimidin-2-yl)propan-2-ol]: the IC50 under setting [2] is less than 1000 nM.

`c1ccc([C@H]2CCCc3nc4ccc(-c5cnc(N6CCOCC6)nc5)cc4n32)cc1` [Y.1]: the half-inhibitory concentration (IC50) under setting [1] is less than 1000 nM.
